Measured values reported in ChEMBL document CHEMBL5108047 (J Med Chem, 2022).

What was measured:
[1] = biological target: T1, DNA polymerase theta (Homo sapiens, UniProt O75417); experiment: Inhibition of human DNA polymerase theta pol domain (1819 to 2590 residues) expressed in Escherichia coli BL21 (DE3) cells preincubated for 15 mins followed by DNA and dNTP addition and measured after 120 mins by Picogreen dye fluorescence intensity analysis
[2] = AUC in CD-1 mouse at 20 mg/kg, po measured upto 24 hrs by reverse phase LCMS analysis; format: ADME, organism-based; set-up: time < 24 hrs, dose 20 mg/kg, route po; conditions: in vivo
[3] = biological target: T1, DNA polymerase theta; experiment: Inhibition of N-terminal His8-tagged/C-terminal FLAG-tagged full length human DNA polymerase theta ( 1 to 2590 residues) polymerase activity expressed in HEK2936E cells; format: cell-based
[4] = biological target: T2, DNA polymerase alpha catalytic subunit (Homo sapiens, UniProt P09884); experiment: Inhibition of human DNA polymerase alpha
T2 sequence (P09884 whole entry): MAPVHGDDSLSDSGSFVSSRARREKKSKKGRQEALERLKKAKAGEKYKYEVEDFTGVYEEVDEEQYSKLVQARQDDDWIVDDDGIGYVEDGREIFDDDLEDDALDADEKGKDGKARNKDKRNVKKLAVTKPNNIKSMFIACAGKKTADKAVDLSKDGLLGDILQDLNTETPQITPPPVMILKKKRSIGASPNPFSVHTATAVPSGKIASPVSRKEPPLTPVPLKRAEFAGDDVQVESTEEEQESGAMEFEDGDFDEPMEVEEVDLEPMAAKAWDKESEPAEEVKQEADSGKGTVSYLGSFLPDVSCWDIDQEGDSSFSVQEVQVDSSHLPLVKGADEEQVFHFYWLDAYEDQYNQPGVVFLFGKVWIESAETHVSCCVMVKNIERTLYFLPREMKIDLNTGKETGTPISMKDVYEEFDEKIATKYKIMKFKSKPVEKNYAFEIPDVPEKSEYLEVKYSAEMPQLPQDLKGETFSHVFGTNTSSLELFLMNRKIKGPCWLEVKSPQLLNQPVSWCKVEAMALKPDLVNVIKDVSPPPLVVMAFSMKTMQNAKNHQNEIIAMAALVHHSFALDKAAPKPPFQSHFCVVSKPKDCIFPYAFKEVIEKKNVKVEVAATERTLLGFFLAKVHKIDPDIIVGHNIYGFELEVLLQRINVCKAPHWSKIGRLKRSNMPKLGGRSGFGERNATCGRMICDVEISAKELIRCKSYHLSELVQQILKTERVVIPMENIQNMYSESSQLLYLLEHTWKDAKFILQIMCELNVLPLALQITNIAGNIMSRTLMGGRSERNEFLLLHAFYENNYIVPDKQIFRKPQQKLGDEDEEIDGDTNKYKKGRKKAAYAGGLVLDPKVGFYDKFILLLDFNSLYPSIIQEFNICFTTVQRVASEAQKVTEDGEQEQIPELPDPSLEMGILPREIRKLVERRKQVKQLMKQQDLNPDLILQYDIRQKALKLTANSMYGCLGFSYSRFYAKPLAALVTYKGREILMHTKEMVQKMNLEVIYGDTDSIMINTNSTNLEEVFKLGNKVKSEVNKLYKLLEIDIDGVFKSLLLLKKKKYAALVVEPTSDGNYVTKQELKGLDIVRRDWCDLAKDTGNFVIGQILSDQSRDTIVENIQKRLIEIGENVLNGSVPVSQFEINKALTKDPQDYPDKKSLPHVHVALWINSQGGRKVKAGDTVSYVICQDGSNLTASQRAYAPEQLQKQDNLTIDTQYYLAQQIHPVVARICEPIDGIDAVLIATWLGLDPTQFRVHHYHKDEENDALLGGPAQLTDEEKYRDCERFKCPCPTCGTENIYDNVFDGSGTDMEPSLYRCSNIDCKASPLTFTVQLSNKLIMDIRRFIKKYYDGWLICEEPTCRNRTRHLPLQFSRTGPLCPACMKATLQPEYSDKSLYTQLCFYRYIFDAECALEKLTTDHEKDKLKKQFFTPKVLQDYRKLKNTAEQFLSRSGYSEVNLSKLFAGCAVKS

[5] = Inhibition of MMEJ-mediated DNA repair in CRSIPRR/Cas9-induced wildtype human HCT-116 cells incubated for 24 hrs by PCR analysis; format: functional, cell-based
[6] = biological target: T1, DNA polymerase theta; experiment: Inhibition of DNA polymerase theta in LIG4 knock out HEK293T cells assessed as decrease in MMEJ-mediated DNA repair preincubated for 1 day followed by lentivirus solution addition for 24 hrs prior to media replacement with compound and measured after 96 hrs by flow cytometry based traffic-light reporter assay; format: cell-based
[7] = system: HCT-116; experiment: Antiproliferative activity against BRCA2 knock out human HCT-116 cells assessed as inhibition of cell growth incubated for 12 to 14 days with media replacement for every 3 or 4 days; format: functional, cell-based
[8] = system: HCT-116; experiment: Antiproliferative activity against BRCA2 knock in human HCT-116 cells assessed as inhibition of cell growth incubated for 7 days with media replacement for every 3 or 4 days; format: functional, cell-based
[9] = fCaverage in CD-1 mouse; format: ADME
[10] = Volume of distribution at steady state in CD-1 mouse at 2.5 mg/kg, po or 2.5 mg/kg, iv measured upto 24 hrs by reverse phase LCMS analysis; format: ADME, organism-based; conditions: in vivo
[11] = Half-life in CD-1 mouse at 2.5 mg/kg, po or 2.5 mg/kg, iv measured upto 24 hrs by reverse phase LCMS analysis; format: ADME, organism-based; conditions: in vivo
[12] = Oral bioavailability in CD-1 mouse at […] measured upto 24 hrs by reverse phase LCMS analysis; format: ADME, organism-based; conditions: in vivo
[13] = Inhibition of Alt-Ej-mediated DNA repair in LIG4 knock out HEK293T cells; format: functional, cell-based, Homo sapiens; conditions: hek-293t
[14] = Toxicity in CD-1 mouse xenografted with BRCA2 knock out human HCT-116 cells assessed as drug tolerance at 80 mg/kg, po administered twice a day for 21 days; format: organism-based; conditions: in vivo, 504 h, time 21 day
[15] = Toxicity in CD-1 mouse xenografted with BRCA2 knock in human HCT-116 cells assessed as body weight loss at 80 mg/kg, po administered twice a day for 21 days; format: organism-based; conditions: in vivo, 504 h, time 21 day
[16] = Toxicity in CD-1 mouse xenografted with BRCA2 knock out human HCT-116 cells assessed as body weight loss at 80 mg/kg, po administered twice a day for 21 days; format: organism-based; conditions: in vivo, 504 h, time 21 day
[17] = AUC in CD-1 nude mouse at 80 mg/kg, po administered twice daily and measured on day 1 by HPLC-MS analysis; format: ADME, organism-based; set-up: dose 80 mg/kg, time 1 day, route po; conditions: in vivo
[18] = AUC in CD-1 nude mouse at 80 mg/kg, po administered twice daily and measured on day 7 by HPLC-MS analysis; format: ADME, organism-based; set-up: time 7 day, dose 80 mg/kg, route po; conditions: in vivo

T1 sequence (O75417 whole entry, the tested form may be a part): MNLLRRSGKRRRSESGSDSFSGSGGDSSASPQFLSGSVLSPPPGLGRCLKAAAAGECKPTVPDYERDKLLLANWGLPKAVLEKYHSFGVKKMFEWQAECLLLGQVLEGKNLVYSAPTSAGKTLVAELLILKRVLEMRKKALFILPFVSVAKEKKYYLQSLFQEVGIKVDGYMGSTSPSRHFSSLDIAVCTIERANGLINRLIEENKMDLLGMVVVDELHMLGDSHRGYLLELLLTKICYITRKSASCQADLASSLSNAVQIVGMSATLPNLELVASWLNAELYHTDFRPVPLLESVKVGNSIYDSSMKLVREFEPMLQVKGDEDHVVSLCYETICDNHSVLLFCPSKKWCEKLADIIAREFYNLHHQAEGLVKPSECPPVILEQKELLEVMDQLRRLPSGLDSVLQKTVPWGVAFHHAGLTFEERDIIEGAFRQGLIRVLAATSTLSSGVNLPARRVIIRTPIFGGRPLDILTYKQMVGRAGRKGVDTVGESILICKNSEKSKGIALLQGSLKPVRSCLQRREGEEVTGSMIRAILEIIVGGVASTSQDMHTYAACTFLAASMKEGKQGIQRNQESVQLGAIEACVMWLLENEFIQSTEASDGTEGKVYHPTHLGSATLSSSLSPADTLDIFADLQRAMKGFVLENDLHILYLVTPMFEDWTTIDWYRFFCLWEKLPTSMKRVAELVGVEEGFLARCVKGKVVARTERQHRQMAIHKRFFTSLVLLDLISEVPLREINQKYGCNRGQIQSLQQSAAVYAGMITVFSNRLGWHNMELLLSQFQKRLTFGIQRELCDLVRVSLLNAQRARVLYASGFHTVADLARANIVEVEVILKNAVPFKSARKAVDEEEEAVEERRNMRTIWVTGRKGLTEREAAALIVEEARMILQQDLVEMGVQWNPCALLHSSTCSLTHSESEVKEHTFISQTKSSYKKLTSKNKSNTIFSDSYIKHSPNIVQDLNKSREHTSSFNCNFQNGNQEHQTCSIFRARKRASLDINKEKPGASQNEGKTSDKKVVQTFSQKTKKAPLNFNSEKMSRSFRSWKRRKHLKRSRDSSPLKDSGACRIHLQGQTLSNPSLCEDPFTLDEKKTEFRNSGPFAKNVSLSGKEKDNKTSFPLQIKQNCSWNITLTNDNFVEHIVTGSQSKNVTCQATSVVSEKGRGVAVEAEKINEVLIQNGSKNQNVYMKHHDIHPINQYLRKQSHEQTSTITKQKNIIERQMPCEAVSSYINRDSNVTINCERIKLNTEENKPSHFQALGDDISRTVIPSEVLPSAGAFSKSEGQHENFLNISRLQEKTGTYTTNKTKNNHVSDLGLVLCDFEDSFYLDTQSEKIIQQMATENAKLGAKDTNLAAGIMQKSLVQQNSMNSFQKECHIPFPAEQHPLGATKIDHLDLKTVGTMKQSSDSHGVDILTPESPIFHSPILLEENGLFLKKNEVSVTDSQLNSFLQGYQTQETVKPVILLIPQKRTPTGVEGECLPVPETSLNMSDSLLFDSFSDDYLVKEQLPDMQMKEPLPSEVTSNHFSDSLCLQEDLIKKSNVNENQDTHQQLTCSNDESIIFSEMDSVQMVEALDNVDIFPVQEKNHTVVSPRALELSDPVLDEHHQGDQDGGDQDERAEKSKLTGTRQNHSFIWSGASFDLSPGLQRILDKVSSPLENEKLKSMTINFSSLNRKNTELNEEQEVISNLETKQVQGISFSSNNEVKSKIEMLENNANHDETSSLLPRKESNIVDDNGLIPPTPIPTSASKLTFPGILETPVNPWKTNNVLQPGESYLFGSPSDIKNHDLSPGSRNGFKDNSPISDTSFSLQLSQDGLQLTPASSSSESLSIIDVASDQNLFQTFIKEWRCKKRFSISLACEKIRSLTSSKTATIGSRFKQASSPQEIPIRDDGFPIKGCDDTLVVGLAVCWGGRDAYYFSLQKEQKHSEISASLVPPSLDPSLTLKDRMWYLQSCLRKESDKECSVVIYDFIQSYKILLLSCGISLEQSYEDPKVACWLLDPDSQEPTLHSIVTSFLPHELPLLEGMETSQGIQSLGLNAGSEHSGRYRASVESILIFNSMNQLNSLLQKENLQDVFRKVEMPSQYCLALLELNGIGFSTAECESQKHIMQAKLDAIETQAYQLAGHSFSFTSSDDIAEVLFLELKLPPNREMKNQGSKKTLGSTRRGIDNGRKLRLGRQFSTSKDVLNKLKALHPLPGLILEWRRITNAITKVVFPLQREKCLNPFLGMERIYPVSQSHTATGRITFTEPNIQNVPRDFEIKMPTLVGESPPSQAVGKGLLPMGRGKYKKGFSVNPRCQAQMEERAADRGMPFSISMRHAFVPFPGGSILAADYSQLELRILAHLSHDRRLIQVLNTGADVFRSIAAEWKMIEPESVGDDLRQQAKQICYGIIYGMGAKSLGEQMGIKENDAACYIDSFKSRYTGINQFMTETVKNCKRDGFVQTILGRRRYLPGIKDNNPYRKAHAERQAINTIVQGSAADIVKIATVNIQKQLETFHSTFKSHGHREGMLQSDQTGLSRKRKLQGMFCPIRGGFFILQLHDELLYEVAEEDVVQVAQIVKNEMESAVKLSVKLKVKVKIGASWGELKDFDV

## Nc1ccc(C#CCN(C(=O)Cc2ncc(C(F)(F)F)cc2C(F)(F)F)c2ccc(F)cc2)nn1
[1]
  IC50: 5.8 nM
[2]
  AUC: 49.7 µM·h
[3]
  IC50: 0.55 nM
[4]
  IC50: > 100000 nM
[5]
  IC50: 450 nM
[6]
  IC50: 940 nM
[7]
  IC50: 320 nM
[8]
  IC50: > 15000 nM
[9]
  f(Cave): 107 nM
[10]
  Vdss: 1.1 L/kg
[11]
  t1/2: 24 min
[12]
  bioavailability: 66%
[13]
  IC50: 2150 nM
[14]
  Activity: Non-Toxic
[15]
  Activity: Non-Toxic
[16]
  Activity: Non-Toxic
[17]
  AUC at 24 h: 32.6 µM·h
[18]
  AUC at 168 h: 14.7 µM·h
